# Results as given in the supplement of paper PMC10307832.
# Key:
# Assay in all cases: relative viability (nuclei count vs DMSO), 5 days (fraction); higher = more cells survive
# CUDC-101 + Lapatinib = compound: C#Cc1cccc(Nc2ncnc3cc(OC)c(OCCCCCCC(=O)NO)cc23)c1 [CUDC-101] + CS(=O)(=O)CCNCc1ccc(-c2ccc3ncnc(Nc4ccc(OCc5cccc(F)c5)c(Cl)c4)c3c2)o1 [Lapatinib] (partner 2 µM)
# Summary of the method: (§1)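 Lung cancer cell lines were seeded in 1536-well plates and dosed by pin tool the next day, with either a single drug or a fixed anchor-drug dose combined with five library-drug doses (not always all listed) spaced in √10 steps. Five days later, one step fixed the cells and stained their nuclei (final 0.05% Triton X-100, 1% formaldehyde, 1 ug/ml Hoechst), and nuclei were counted on 4× images. Relative viability is the nuclei count in treated wells divided by the count in vehicle wells, and each value is the median of duplicate plates.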
# [1] = compound: C1=CC=C2C(=C1)N=C(S2)C(C#N)C3=NC(=NC=C3)NCCC4=CN=CC=C4 + CC(C)C[C@H](NC(=O)[C@H](Cc1ccccc1)NC(=O)c1cnccn1)B(O)O [Bortezomib] (partner 0.002 µM)
# Summary of the method: as §1
# NVP-TAE684 + Palbociclib = compound: COc1cc(N2CCC(N3CCN(C)CC3)CC2)ccc1Nc1ncc(Cl)c(Nc2ccccc2S(=O)(=O)C(C)C)n1 [NVP-TAE684] + CC(=O)c1c(C)c2cnc(Nc3ccc(N4CCNCC4)cn3)nc2n(C2CCCC2)c1=O [Palbociclib] (partner 0.5 µM)
# Summary of the method: as §1
# NVP-TAE684 + OSI-027 = compound: COc1cc(N2CCC(N3CCN(C)CC3)CC2)ccc1Nc1ncc(Cl)c(Nc2ccccc2S(=O)(=O)C(C)C)n1 [NVP-TAE684] + COc1cccc2cc(-c3nc([C@H]4CC[C@H](C(=O)O)CC4)n4ncnc(N)c34)[nH]c12 [OSI-027] (partner 0.5 µM)
# Summary of the method: as §1
# NVP-TAE684 + Tozasertib = compound: COc1cc(N2CCC(N3CCN(C)CC3)CC2)ccc1Nc1ncc(Cl)c(Nc2ccccc2S(=O)(=O)C(C)C)n1 [NVP-TAE684] + Cc1cc(Nc2cc(N3CCN(C)CC3)nc(Sc3ccc(NC(=O)C4CC4)cc3)n2)n[nH]1 [Tozasertib] (partner 0.1 µM)
# Summary of the method: as §1
cell line,measurement,setting,value
UMC-11,relative viability,CUDC-101 + Lapatinib; first compound 0.01 µM,1.05
same,relative viability,CUDC-101 + Lapatinib; first compound 0.03162 µM,0.968
same,relative viability,CUDC-101 + Lapatinib; first compound 0.1 µM,0.724
same,relative viability,CUDC-101 + Lapatinib; first compound 0.3162 µM,0.711
same,relative viability,CUDC-101 + Lapatinib; first compound 1 µM,0.126
same,relative viability,[1]; first compound 0.005 µM,0.458
same,relative viability,[1]; first compound 0.01581 µM,0.695
same,relative viability,[1]; first compound 0.05 µM,0.901
same,relative viability,[1]; first compound 0.1581 µM,0.875
same,relative viability,[1]; first compound 0.5 µM,0.488
same,relative viability,NVP-TAE684 + Palbociclib; first compound 0.2 µM,0.344
same,relative viability,NVP-TAE684 + Palbociclib; first compound 0.6325 µM,0.326
same,relative viability,NVP-TAE684 + Palbociclib; first compound 2 µM,0.26
same,relative viability,NVP-TAE684 + OSI-027; first compound 0.2 µM,0.412
same,relative viability,NVP-TAE684 + OSI-027; first compound 0.6325 µM,0.438
same,relative viability,NVP-TAE684 + OSI-027; first compound 2 µM,0.282
same,relative viability,NVP-TAE684 + Tozasertib; first compound 0.2 µM,0.234
same,relative viability,NVP-TAE684 + Tozasertib; first compound 0.6325 µM,0.199
same,relative viability,NVP-TAE684 + Tozasertib; first compound 2 µM,0.197
